Data reported in article PMC8386730, “Pyrrolidine-based 3-deoxysphingosylphosphorylcholine analogs as possible candidates against neglected tropical diseases (NTDs): identification of hit compounds towards development of potential treatment of Leishmania donovani” (Journal of Enzyme Inhibition and Medicinal Chemistry, 2021).
Like-named read-outs stand apart in the source and are kept apart here.

Assays:
[1] = test system: L. donovani promastigotes; assay: Growth inhibition of L. donovani promastigotes (resazurin-based assay); format: cell-based, Leishmania donovani; design: Inhibition at both 50 and 25 µM concentrations: unit: %; conditions: for inhibition at 25 µM / inhibition at 50 µM / IC50: Leishmania donovani, 72 h, incubation 3 days; for inhibition at 25 µM / inhibition at 50 µM: relative to control; for inhibition at 25 µM: read-out: % Inhibition at 25 µM concentration; for inhibition at 50 µM: read-out: % Inhibition at 50 µM concentration; for IC50: extracellular promastigotes, duplicates, read-out: IC50 ± SD, growth of L. donovani promastigotes; for Potency against promastigotes (in words): dose-response evaluation
Procedure: Out of 20 known Leishmania species pathogenic to humans, L. donovani, which causes visceral leishmaniasis, is the most fatal. Consequently, an in vitro model of L. donovani promastigotes[26] was selected to evaluate the activity of the synthesised pyrrolidine-based 3-deoxysphingosylphosphorylcholine analogs 1e–i, 2a–f, 3a–f at two concentration (50 and 25 µM) employing miltefosine and erufosine (ErPC; erucylphosphocholine) as reference standards using a resazurin-based assay.
For comparison, erufosine and miltefosine were used as reference standards.
L. donovani MHOM/SD/62/1S-CL2D parasites were cultured as promastigotes at 28 °C in M199 medium (Sigma-Aldrich, St. Louis, MO, USA) with 40 mM HEPES, 0.1 mM adenine, 0.0001% biotin, and 4.62 mM NaHCO3 supplemented with 10% foetal bovine serum (FBS, Gibco, Carlsbad, CA, USA), […] penicillin (Gibco), and 100 µg/mL streptomycin (Gibco). Parasites were sub-cultured every 3 or 4 days and maintained for 10 passages.
The plates were analysed using a Victor3TM plate reader (PerkinElmer, Inc., Waltham, MA, USA) at 590 nm (emission) and 530 nm (excitation). Miltefosine and erufosine were used as the reference standards. All measured and calculated values are the averages of duplicates. The dose-response curves were generated by GraphPad Prism 6 software using a sigmoidal dose-response equation with a variable hill slope option.

[2] = test system: intracellular L. donovani amastigotes; assay: Intracellular L. donovani amastigotes in infected THP-1 cells (image-based); format: cell-based; conditions: Leishmania donovani, 72 h, duplicates, read-out: Intracellular L. donovani IC50 ± SD
Text: (§1) As the extracellular promastigotes form represents the insect stage of the parasite, assessment of activity is needed to confirm activity against the intracellular amastigotes form, which is the human host form (mammalian host form). In addition, a preliminary assessment of selectivity and safety might be desirable to evaluate the quality of hit compounds. Accordingly, compound 1e and its enantiomer; 1a, in parallel with standard drugs miltefosine and erufosine were submitted for evaluation in intracellular amastigotes model using infected THP-1 cells; human monocytic cell line derived from an acute monocytic leukaemia. In addition, cytotoxicity of tested compounds and standards were evaluated against THP-1 cells and normal human embryonic kidney cells; HEK293T to evaluate selectivity and safety. PMA-treated THP-1 human monocytic cells were seeded at 0.8 × 10^4 cells per well in a 384-well culture plate (Greiner Bio-One, Kremsmünster, Austria) in RPMI-1640 complete medium supplemented with 10% FBS. After 48 h of incubation at 37 °C in the presence of 5% CO2, infected THP-1 cells were treated with miltefosine (at 80 µM, positive control), and tested compounds (at 200 µM). The negative control consisted of THP-1 infected with the parasite with only 0.5% DMSO. After 72 h, the cells that were infected and treated with the drug were washed with serum-free RPMI-1640 medium. The cells and parasites were stained using 5 µM DAPI and 4% PFA. The images were acquired based on reading using an Operetta® automated microscope (PerkinElmer, Inc., Waltham, MA 02451, USA). They were further analysed using Columbus^TM (PerkinElmer, Inc. Waltham, MA, USA) software to quantify parasite numbers, and host cell numbers. In brief, large-sized nucleus of host cells was first detected using DAPI signal and the host cell boundary masking was performed using the low-intensity signals from cytosols. Then the small-sized nucleus signal by DAPI was used to identify parasites within the area of the masked host cell. The DRC results were further assessed in a dose-dilution manner (two-fold serial dilution for 10 points starting from 200 µM).

[3] = Cytotoxicity against THP-1 host cells; format: cell-based, human; conditions: human, PMA-treated THP-1 monocytic cells infected with the parasite; THP-1 cells, duplicates; read-out: THP-1 cell CC50 ± SD
Text: as §1

[4] = test system: THP-1 cells; assay: Cytotoxicity against THP-1 host cells; format: cell-based, human; conditions: CC50 THP-1 divided by IC50 intracellular L. donovani
Text: as §1

[5] = Cytotoxicity against HEK293T cells (resazurin); format: cell-based; conditions: human, duplicates, read-out: HEK293T CC50 ± SD
Text: As the extracellular promastigotes form represents the insect stage of the parasite, assessment of activity is needed to confirm activity against the intracellular amastigotes form, which is the human host form (mammalian host form). In addition, a preliminary assessment of selectivity and safety might be desirable to evaluate the quality of hit compounds. Accordingly, compound 1e and its enantiomer; 1a, in parallel with standard drugs miltefosine and erufosine were submitted for evaluation in intracellular amastigotes model using infected THP-1 cells; human monocytic cell line derived from an acute monocytic leukaemia. In addition, cytotoxicity of tested compounds and standards were evaluated against THP-1 cells and normal human embryonic kidney cells; HEK293T to evaluate selectivity and safety. Cytotoxicity against HEK293T cell growth was assayed by measuring the conversion of resazurin to resorufin. The assays were performed in 384-well plates that were seeded with HEK293T cells (1000 cells per well). After seeding, the cells were exposed to the compounds for 3 days. Resazurin sodium salt (200 µM; R7017; Sigma-Aldrich, St. Louis, MO, USA) was then added, and the samples were incubated for 5 h. After incubation, the […] were fixed using 4% paraformaldehyde, and the plates were analysed using a Victor3TM plate reader (PerkinElmer, Inc., Waltham, MA, USA) at 590 nm (emission) and 530 nm (excitation). Miltefosine and saponin were used as the reference drugs for the HEK293T growth inhibition.

[6] = test system: L. donovani promastigotes; design: method as in PMID 22506086; conditions: literature value; read-out: Reported IC50 against L. donovani promastigotes; cited from earlier work
[7] = test system: L. major promastigotes; design: method as in PMID 21267500; conditions: cited from earlier work

IC50 [1] [µM]	SMILES	inhibition at 25 µM [1] [%]	inhibition at 50 µM [1] [%]	Activity at both 50 and 25 µM concentrations (in words) [1]	further results
> 100	CCCCCCCC/C=C\CCCCCCCC(=O)N1CC[C@@H](OP(=O)([O-])OCC[N+](C)(C)C)C1 [Compound 3c]	106	106	maintained high activity	Potency against promastigotes (in words) [1]: weak potency
> 100	CCCCCCCC/C=C\CCCCCCCCCCCC(=O)N1CC[C@@H](OP(=O)([O-])OCC[N+](C)(C)C)C1 [Compound 3d]	107	104	highly active	Potency against promastigotes (in words) [1]: poor potency
> 100	CCCCCCCCCCCCCCCC(=O)N1CC[C@@H](OP(=O)([O-])OCC[N+](C)(C)C)C1 [Compound 3a]	108	109	highly active	Potency against promastigotes (in words) [1]: weak potency

The next lines start with the molecule.

SMILES	IC50 [1] [µM]	inhibition at 25 µM [1] [%]	inhibition at 50 µM [1] [%]	Activity at both 50 and 25 µM concentrations (in words) [1]	further results
CCCCCCCCCCCCCCCCOP(=O)([O-])OCC[N+](C)(C)C [Miltefosine, miltefosine, reference compound]	4.94 ± 0.47	100	100	–	IC50 [2]: 2.55 ± 0.63 µM; CC50 at 72 h [3]: 40.8 ± 3.32 µM; Selectivity index [4]: 16.0; CC50 at 3 days [5]: > 200 µM; IC50 [6]: 3.1 µM
CCCCCCCC/C=C\CCCCCCCC(=O)N1CC[C@H](COP(=O)([O-])OCC[N+](C)(C)C)C1 [Compound 2c]	–	-19	107	–	–
CCCCCCCC/C=C\CCCCCCCCCCCC(=O)N1CC[C@H](COP(=O)([O-])OCC[N+](C)(C)C)C1 [Compound 2d]	> 100	107	109	highly active	Potency against promastigotes (in words) [1]: poor potency
CCCCC/C=C\C/C=C\CCCCCCCC(=O)N1CCC[C@H]1COP(=O)([O-])OCC[N+](C)(C)C [Compound 1h]	–	-18	0	completely inactive	–
CC/C=C\C/C=C\C/C=C\CCCCCCCC(=O)N1CC[C@@H](OP(=O)([O-])OCC[N+](C)(C)C)C1 [Compound 3f]	–	-14	1	completely inactive	–
CCCCCCCCCCCCCCCC(=O)N1CCC[C@H]1COP(=O)([O-])OCC[N+](C)(C)C [Compound 1e]	28.3 ± 1.38	107	107	highly active	IC50 [2]: 14.3 ± 2.03 µM; CC50 at 72 h [3]: 15.8 ± 3.23 µM; Selectivity index [4]: 1.1; CC50 at 3 days [5]: 45.1 ± 5.01 µM
CC/C=C\C/C=C\C/C=C\CCCCCCCC(=O)N1CCC[C@H]1COP(=O)([O-])OCC[N+](C)(C)C [Compound 1i]	–	-16	1	completely inactive	–
CCCCCCCCCCCCCCCC(=O)N1CC[C@H](COP(=O)([O-])OCC[N+](C)(C)C)C1 [Compound 2a]	54.6 ± 2.02	107	108	highly active	–
CCCCCCCC/C=C\CCCCCCCC(=O)N1CCC[C@@H]1COP(=O)([O-])OCC[N+](C)(C)C [Compound 1c]	–	10	51	–	–
CCCCCCCC/C=C\CCCCCCCCCCCC(=O)N1CCC[C@@H]1COP(=O)([O-])OCC[N+](C)(C)C [Compound 1d]	46.65 ± 0.45	107	108	–	Inhibition at both 50 and 25 µM concentrations [1]: ≥ 100
CCCCCCCC/C=C\CCCCCCCCCCCC(=O)N1CCC[C@H]1COP(=O)([O-])OCC[N+](C)(C)C [Compound 1g]	68.47 ± 0.04	110	109	highly active	–
CC/C=C\C/C=C\C/C=C\CCCCCCCC(=O)N1CC[C@H](COP(=O)([O-])OCC[N+](C)(C)C)C1 [Compound 2f]	–	0	9	completely inactive	–
CCCCCCCC/C=C\CCCCCCCCCCCCOP(=O)([O-])OCC[N+](C)(C)C [Erufosine, erucylphosphocholine, reference compound]	9.75 ± 2.41	106	108	–	IC50 [2]: 3.61 ± 1.05 µM; CC50 at 72 h [3]: 3.94 ± 1.02 µM; Selectivity index [4]: 1.1; CC50 at 3 days [5]: 40.8 ± 3.36 µM; IC50 [6]: 13.3 µM
CCCCCC/C=C\CCCCCCCC(=O)N1CC[C@H](COP(=O)([O-])OCC[N+](C)(C)C)C1 [Compound 2b]	–	27	98	–	–
CCCCCCCCCCCCC/C=C/C[C@@H](N)CO [Compound 26an]	–	–	–	–	Cytotoxicity against L. major promastigotes (in words) [7]: significant cytotoxicity
CCCCCC/C=C\CCCCCCCC(=O)N1CCC[C@@H]1COP(=O)([O-])OCC[N+](C)(C)C [Compound 1b]	66.1 ± 3.61	108	109	–	Inhibition at both 50 and 25 µM concentrations [1]: ≥ 100
CCCCC/C=C\C/C=C\CCCCCCCC(=O)N1CC[C@H](COP(=O)([O-])OCC[N+](C)(C)C)C1 [Compound 2e]	–	34	101	–	–
CCCCCCCC/C=C\CCCCCCCC(=O)N1CCC[C@H]1COP(=O)([O-])OCC[N+](C)(C)C [Compound 1f]	–	65	108	–	–
CCCCCCCCCCCCCCCC(=O)N1CCC[C@@H]1COP(=O)([O-])OCC[N+](C)(C)C [Compound 1a]	52.6 ± 1.44	107	108	–	Inhibition at both 50 and 25 µM concentrations [1]: ≥ 100; IC50 [2]: 11.3 ± 1.81 µM; CC50 at 72 h [3]: 25.3 ± 3.56 µM; Selectivity index [4]: 2.2; CC50 at 3 days [5]: 30.6 ± 2.31 µM
CCCCC/C=C\C/C=C\CCCCCCCC(=O)N1CC[C@@H](OP(=O)([O-])OCC[N+](C)(C)C)C1 [Compound 3e]	–	0	69	–	–
CCCCCC/C=C\CCCCCCCC(=O)N1CC[C@@H](OP(=O)([O-])OCC[N+](C)(C)C)C1 [Compound 3b]	–	67	90	–	–
